Test results published in ChEMBL document CHEMBL3351801, “Phragmalin-type limonoids with NF-κB inhibition from Chukrasia tabularis var. velutina” (Bioorg Med Chem Lett, 2014).

Legend:
Format in all cases: cell-based
[1] = molecular target: T1, Nuclear factor NF-kappa-B complex (Homo sapiens) (UniProt Q00653+P19838+Q04206); experiment: Inhibition of LPS-induced NF-kappaB (unknown origin) expressed in HEK293 cells at 1 ug/ml after 4 hrs by luciferase reporter gene assay relative to LPS-treated control
T1 sequence (P19838 whole entry, looked up): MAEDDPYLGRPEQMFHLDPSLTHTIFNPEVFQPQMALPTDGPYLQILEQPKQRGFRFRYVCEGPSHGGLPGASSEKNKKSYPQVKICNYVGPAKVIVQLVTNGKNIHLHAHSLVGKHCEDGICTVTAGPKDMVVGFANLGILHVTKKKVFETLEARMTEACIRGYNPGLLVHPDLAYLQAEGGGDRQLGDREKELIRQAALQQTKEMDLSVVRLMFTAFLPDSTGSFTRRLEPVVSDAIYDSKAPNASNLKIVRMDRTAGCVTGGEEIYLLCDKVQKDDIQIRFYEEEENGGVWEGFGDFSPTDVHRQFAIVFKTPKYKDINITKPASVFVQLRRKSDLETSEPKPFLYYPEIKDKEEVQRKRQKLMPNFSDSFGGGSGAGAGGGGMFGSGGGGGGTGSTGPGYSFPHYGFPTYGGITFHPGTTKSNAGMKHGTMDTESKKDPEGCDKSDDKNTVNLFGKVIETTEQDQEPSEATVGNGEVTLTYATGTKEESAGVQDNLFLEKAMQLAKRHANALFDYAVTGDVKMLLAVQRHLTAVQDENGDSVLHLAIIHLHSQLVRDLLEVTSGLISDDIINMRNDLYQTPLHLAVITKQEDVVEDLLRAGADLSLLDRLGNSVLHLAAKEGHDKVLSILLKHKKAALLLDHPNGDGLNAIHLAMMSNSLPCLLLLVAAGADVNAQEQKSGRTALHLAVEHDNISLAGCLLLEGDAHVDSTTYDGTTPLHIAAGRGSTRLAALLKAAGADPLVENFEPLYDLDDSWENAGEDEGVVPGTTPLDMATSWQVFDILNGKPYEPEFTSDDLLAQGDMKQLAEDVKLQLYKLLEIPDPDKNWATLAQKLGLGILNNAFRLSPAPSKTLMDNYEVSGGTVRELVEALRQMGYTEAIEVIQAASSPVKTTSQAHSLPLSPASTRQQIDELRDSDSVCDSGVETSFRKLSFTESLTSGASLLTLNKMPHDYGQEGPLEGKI
T1 sequence (Q00653 whole entry, looked up): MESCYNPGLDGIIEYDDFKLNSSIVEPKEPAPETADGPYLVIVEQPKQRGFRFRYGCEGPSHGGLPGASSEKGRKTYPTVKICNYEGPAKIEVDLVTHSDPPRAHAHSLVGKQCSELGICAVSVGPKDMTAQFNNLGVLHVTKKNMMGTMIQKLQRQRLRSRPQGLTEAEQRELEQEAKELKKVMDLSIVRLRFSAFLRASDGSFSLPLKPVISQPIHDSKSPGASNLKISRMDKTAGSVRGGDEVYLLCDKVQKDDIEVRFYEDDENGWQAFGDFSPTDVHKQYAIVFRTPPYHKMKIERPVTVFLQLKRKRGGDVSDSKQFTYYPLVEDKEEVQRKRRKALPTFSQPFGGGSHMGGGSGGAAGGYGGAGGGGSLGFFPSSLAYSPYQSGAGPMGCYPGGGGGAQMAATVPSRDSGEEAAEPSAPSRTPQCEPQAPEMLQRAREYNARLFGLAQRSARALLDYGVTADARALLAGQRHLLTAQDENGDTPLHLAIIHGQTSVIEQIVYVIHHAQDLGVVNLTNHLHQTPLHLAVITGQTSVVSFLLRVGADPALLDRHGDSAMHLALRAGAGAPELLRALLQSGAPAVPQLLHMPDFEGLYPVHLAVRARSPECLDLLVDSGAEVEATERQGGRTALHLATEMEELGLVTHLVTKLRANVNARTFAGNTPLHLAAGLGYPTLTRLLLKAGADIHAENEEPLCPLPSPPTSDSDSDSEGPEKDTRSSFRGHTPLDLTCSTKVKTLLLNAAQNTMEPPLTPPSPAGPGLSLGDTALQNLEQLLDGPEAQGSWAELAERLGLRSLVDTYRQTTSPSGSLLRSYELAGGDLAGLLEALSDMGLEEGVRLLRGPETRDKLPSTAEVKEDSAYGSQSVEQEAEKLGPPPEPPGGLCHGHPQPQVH
T1 sequence (Q04206 whole entry, looked up): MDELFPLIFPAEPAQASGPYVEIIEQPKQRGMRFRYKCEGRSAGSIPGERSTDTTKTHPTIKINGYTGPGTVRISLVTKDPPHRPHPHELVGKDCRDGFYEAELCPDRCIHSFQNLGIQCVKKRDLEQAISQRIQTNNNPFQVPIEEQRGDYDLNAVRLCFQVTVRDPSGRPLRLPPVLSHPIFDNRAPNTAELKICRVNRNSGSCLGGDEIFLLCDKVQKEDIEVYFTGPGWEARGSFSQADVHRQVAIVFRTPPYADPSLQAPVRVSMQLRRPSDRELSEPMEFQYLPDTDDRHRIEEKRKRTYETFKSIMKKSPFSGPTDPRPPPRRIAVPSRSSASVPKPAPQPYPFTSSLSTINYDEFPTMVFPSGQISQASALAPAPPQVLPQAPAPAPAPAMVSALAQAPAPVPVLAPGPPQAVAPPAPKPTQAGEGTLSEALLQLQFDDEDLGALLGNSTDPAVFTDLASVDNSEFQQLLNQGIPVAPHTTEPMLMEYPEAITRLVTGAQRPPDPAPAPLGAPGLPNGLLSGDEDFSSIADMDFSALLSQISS

[2] = molecular target: T1, Nuclear factor NF-kappa-B complex (Homo sapiens); experiment: Inhibition of LPS-induced NF-kappaB (unknown origin) expressed in HEK293 cells at 10 ug/ml after 4 hrs by luciferase reporter gene assay relative to LPS-treated control
[3] = molecular target: T1, Nuclear factor NF-kappa-B complex (Homo sapiens); experiment: Inhibition of LPS-induced NF-kappaB (unknown origin) expressed in HEK293 cells at 100 ug/ml after 4 hrs by luciferase reporter gene assay relative to LPS-treated control

| Compound | Ratio [1] | Ratio [2] | Ratio [3] |
| --- | --- | --- | --- |
| CCC12C[C@@H]3[C@](C)([C@@H](OC(C)=O)c4ccoc4)[C@@H](OC(C)=O)[C@@H](OC(C)=O)[C@@]4(O)[C@]3(O1)[C@H](O2)[C@@]1(OC(C)=O)[C@@H](OC(C)=O)[C@@]2(C)C[C@@]1(O)[C@@]4(C)[C@H]2CC(=O)OC | 0.61 | 0.39 | 0.75 |
| CCC12C[C@@H]3[C@](C)([C@@H](OC(C)=O)c4ccoc4)[C@@H](O)[C@@H](OC(C)=O)[C@@]4(O)[C@]3(O1)[C@H](O2)[C@@]1(OC(C)=O)[C@@H](O)[C@@]2(C)C[C@@]1(O)[C@@]4(C)[C@H]2[C@@H](O)C(=O)OC | 0.1 | 0.23 | 0.3 |
| COC(=O)C[C@H]1[C@]2(C)C[C@]3(O)[C@@](OC(C)=O)([C@H]4OC5(C)C[C@@H]6[C@](C)([C@@H](OC(C)=O)c7ccoc7)[C@@H](OC(C)=O)[C@@H](OC(C)=O)[C@@](O)([C@@]64O5)[C@]13COC(C)=O)[C@H]2OC(C)=O | 0.23 | 0.34 | 0.8 |
| CC(=O)O[C@@H]1[C@H](OC(C)=O)[C@@](C)([C@@H](OC(C)=O)c2ccoc2)[C@H]2CC3(C)O[C@@H]4[C@@]5(OC(C)=O)[C@@H](OC(C)=O)[C@@]6(C)C[C@@]5(O)[C@]5(COC(=O)C[C@@H]65)[C@]1(O)[C@@]24O3 | 0.25 | 0.27 | 0.42 |
| COC(=O)[C@H](OC(C)=O)[C@H]1[C@]2(C)C[C@]3(O)[C@@](OC(=O)C(C)C)([C@H]4OC5(C)O[C@@]6([C@H](O)[C@H](OC(C)=O)[C@]78C[C@]7([C@@H](OC(C)=O)C(=O)O[C@H]8c7ccoc7)[C@@]46O5)[C@]13C)[C@H]2OC(C)=O | 0.13 | 0.05 | 0.24 |
| CC/C(O)=C1/C(=O)O[C@@H]2[C@@]3(O)[C@@H](OC(C)=O)[C@@]4(C)C[C@]35OC3(C)O[C@]26[C@H]1[C@](C)([C@@H](OC(C)=O)c1ccoc1)[C@@H](OC(C)=O)[C@@H](O)[C@]6(O3)[C@]5(COC(C)=O)[C@H]4CC(=O)OC | 0.23 | 0.3 | 0.35 |
| CC/C(O)=C1/C(=O)O[C@@H]2[C@@]3(O)[C@@H](OC(C)=O)[C@@]4(C)C[C@]35OC3(C)O[C@]26[C@H]1[C@](C)([C@@H](OC(C)=O)c1ccoc1)[C@@H](OC(=O)C(C)C)[C@@H](OC(=O)C(C)C)[C@]6(O3)[C@@]51COC(=O)C[C@@H]41 | 0.11 | 0.18 | 0.29 |
| COC(=O)C[C@H]1[C@]2(C)C[C@]3(O)[C@@](O)([C@H]4OC(C)=C[C@@H]5[C@](C)([C@@H](OC(C)=O)c6ccoc6)[C@@H](OC(C)=O)[C@@H](OC(C)=O)[C@]6(OC(=O)O[C@]546)[C@]13C)[C@H]2O | 0.69 | 0.57 | 0.86 |
| CCC12C[C@@H]3[C@](C)([C@@H](OC(C)=O)c4ccoc4)[C@@H](OC(C)=O)[C@@H](OC(C)=O)[C@@]4(O)[C@]3(O1)[C@H](O2)[C@@]1(OC(C)=O)[C@@H](OC(C)=O)[C@@]2(C)C[C@@]1(O)[C@@]4(COC(C)=O)[C@H]2CC(=O)OC | 0.36 | 0.38 | 0.53 |
| CCC12C[C@@H]3[C@](C)([C@@H](OC(C)=O)c4ccoc4)[C@@H](OC(C)=O)[C@@H](OC(C)=O)[C@@]4(O)[C@]3(O1)[C@H](O2)[C@@]1(OC(C)=O)[C@@H](OC(C)=O)[C@@]2(C)C[C@@]1(O)[C@]41COC(=O)C[C@@H]21 | 0.09 | 0.34 | 0.31 |
| COC(=O)[C@H](O)[C@H]1[C@]2(C)C[C@]3(O)[C@@](O)([C@@H](OC(=O)C(C)C)[C@]45OC6(C)O[C@H]([C@H](OC(C)=O)[C@]78C[C@@]74[C@@H](OC(C)=O)C(=O)O[C@H]8c4ccoc4)[C@]5(O6)[C@]13C)[C@H]2OC(C)=O | 0.22 | 0.15 | 0.34 |
| COC(=O)C[C@H]1[C@]2(C)C[C@@]34OC5(C)O[C@]6([C@@H]7/C(=C(\C)O)C(=O)O[C@@H](c8ccoc8)[C@]7(C)[C@@H](OC(C)=O)[C@@H](O)[C@]6(O5)[C@]13COC(C)=O)[C@H](OC(C)=O)[C@@]4(OC(C)=O)[C@H]2OC(C)=O | 0.25 | 0.33 | 0.62 |
| COC(=O)C[C@H]1[C@]2(C)C[C@]3(O)[C@@](O)([C@@H](OC(=O)C(C)C)[C@]45OC6(C)O[C@H]([C@H](O)[C@]78C[C@@]74[C@@H](OC(C)=O)C(=O)O[C@H]8c4ccoc4)[C@]5(O6)[C@]13C)[C@H]2OC(C)=O | 0.1 | 0.1 | 0.17 |
| COC(=O)[C@H](OC(C)=O)[C@H]1[C@]2(C)C[C@]3(O)[C@@](OC(=O)C(C)C)([C@H]4OC5(C)O[C@@]6([C@H](O)[C@H](O)[C@]78C[C@]7([C@@H](OC(C)=O)C(=O)O[C@H]8c7ccoc7)[C@@]46O5)[C@]13C)[C@H]2OC(C)=O | 0.09 | 0.32 | 0.44 |
| CCC(=O)O[C@@H]1[C@@]2(O)[C@@H](OC(C)=O)[C@@]3(C)C[C@]24OC2(C)O[C@]15[C@@H]1CC(=O)O[C@@H](c6ccoc6)[C@]1(C)[C@@H](OC(C)=O)[C@@H](O)[C@]5(O2)[C@]4(COC(C)=O)[C@H]3CC(=O)OC | 0.18 | 0.26 | 0.32 |
| C[C@]12CCC(=O)C=C1CC[C@@H]1[C@@H]2[C@@H](O)C[C@@]2(C)[C@H]1CC[C@]2(O)C(=O)CO | 0.29 | 0.37 | 0.6 |
| CCC1=C[C@@H]2[C@](C)([C@@H](OC(C)=O)c3ccoc3)[C@@H](OC(C)=O)[C@@H](OC(C)=O)[C@@]34OC(=O)O[C@@]23[C@H](O1)[C@@]1(O)[C@@H](O)[C@@]2(C)C[C@@]1(O)[C@@]4(C)[C@H]2CC(=O)OC | 0.16 | 0.14 | 0.26 |
| COC(=O)C[C@H]1[C@]2(C)C[C@]3(O)[C@@](OC(C)=O)([C@H]4OC5(C)C[C@@H]6[C@](C)([C@@H](OC(C)=O)c7ccoc7)[C@@H](OC(C)=O)[C@@H](OC(C)=O)[C@@](O)([C@@]64O5)[C@]13C)[C@H]2OC(C)=O | 0.21 | 0.33 | 0.32 |
| CCC12C[C@@H]3[C@](C)([C@@H](OC(C)=O)c4ccoc4)[C@@H](OC(C)=O)[C@@H](OC(C)=O)[C@@]4(O)[C@]3(O1)[C@H](O2)[C@@]1(O)[C@@H](OC(C)=O)[C@@]2(C)C[C@@]1(O)[C@@]4(C)[C@H]2CC(=O)OC | 0.12 | 0.08 | 0.17 |
| COC(=O)C[C@H]1[C@]2(C)C[C@]3(O)[C@@](O)([C@@H](OC(=O)C(C)C)[C@]45OC6(C)O[C@H]([C@H](OC(C)=O)[C@]78C[C@@]74[C@@H](OC(C)=O)C(=O)O[C@H]8c4ccoc4)[C@]5(O6)[C@]13C)[C@H]2OC(C)=O | 0.12 | 0.32 | 0.35 |
| COC(=O)[C@H](O)[C@H]1[C@]2(C)C[C@]3(O)[C@@](O)([C@H]4OC5(C)C[C@@H]6[C@](C)([C@@H](OC(C)=O)c7ccoc7)[C@@H](OC(C)=O)[C@@H](OC(C)=O)[C@@](O)([C@@]64O5)[C@]13C)[C@H]2O | 0.33 | 0.2 | 0.56 |
| COC(=O)[C@H](OC(C)=O)[C@H]1[C@]2(C)C[C@]3(O)[C@@](O)([C@H]4OC(=O)[C@@H]5O[C@@H](c6ccoc6)[C@@]67C[C@@]56[C@]4(O)[C@](O)([C@H](OC(=O)C(C)C)[C@@H]7OC(C)=O)[C@]13C)[C@H]2OC(C)=O | 0.14 | 0.27 | 0.3 |
| CCC12C[C@@H]3[C@](C)([C@@H](OC(C)=O)c4ccoc4)[C@@H](O)[C@@H](O)[C@@]4(O)[C@]3(O1)[C@H](O2)[C@@]1(OC(C)=O)[C@@H](OC(C)=O)[C@@]2(C)C[C@@]1(O)[C@]41COC(=O)C[C@@H]21 | 0.33 | 0.48 | 0.59 |
| CC/C(O)=C1/C(=O)O[C@@H]2[C@@]3(O)[C@@H](OC(C)=O)[C@@]4(C)C[C@]35OC3(C)O[C@]26[C@H]1[C@](C)([C@@H](OC(C)=O)c1ccoc1)[C@@H](OC(C)=O)[C@@H](OC(C)=O)[C@]6(O3)[C@]5(COC(C)=O)[C@H]4CC(=O)OC | 0.13 | 0.27 | 0.45 |
| COC(=O)[C@H](OC(C)=O)[C@H]1[C@]2(C)C[C@]3(O)[C@@](O)([C@@H](OC(=O)C(C)C)[C@]45OC6(C)O[C@H]([C@H](O)[C@]78C[C@@]74[C@@H](OC(C)=O)C(=O)O[C@H]8c4ccoc4)[C@]5(O6)[C@]13C)[C@H]2OC(C)=O | 0.05 | 0.1 | 0.1 |
| CC(=O)O[C@@H]1[C@H](OC(C)=O)[C@@](C)([C@@H](OC(C)=O)c2ccoc2)[C@H]2CC3(C(C)C)O[C@@H]4[C@@]5(OC(C)=O)[C@@H](OC(C)=O)[C@@]6(C)C[C@@]5(O)[C@]5(COC(=O)C[C@@H]65)[C@]1(O)[C@@]24O3 | 0.17 | 0.25 | 0.3 |
| COC(=O)[C@H](OC(C)=O)[C@H]1[C@]2(C)C[C@]3(O)[C@@](O)([C@@H](OC(=O)C(C)C)[C@]45OC6(C)O[C@H]([C@H](OC(C)=O)[C@]78C[C@@]74[C@@H](OC(C)=O)C(=O)O[C@H]8c4ccoc4)[C@]5(O6)[C@]13C)[C@H]2OC(C)=O | 0.37 | 0.55 | 0.62 |
| CCC12C[C@@H]3[C@](C)([C@@H](OC(C)=O)c4ccoc4)[C@@H](OC(C)=O)[C@@H](OC(C)=O)[C@@]4(O)[C@]3(O1)[C@H](O2)[C@@]1(O)[C@@H](OC(C)=O)[C@@]2(C)C[C@@]1(O)[C@]41COC(=O)C[C@@H]21 | 0.16 | 0.26 | 0.31 |
| CC/C(O)=C1/C(=O)O[C@@H]2[C@@]3(OC(C)=O)[C@@H](OC(C)=O)[C@@]4(C)C[C@]35OC3(C)O[C@]26[C@H]1[C@](C)([C@@H](OC(C)=O)c1ccoc1)[C@@H](OC(C)=O)[C@@H](O)[C@]6(O3)[C@]5(COC(C)=O)[C@H]4CC(=O)OC | 0.23 | 0.33 | 0.45 |
